According to patent publication US12600717B2, “Tricyclic compounds as inhibitors of KRAS” (Incyte Corporation, priority 2021, dated 2026):

What was measured:
KRAS G12D = KRAS G12D (Homo sapiens, UniProt P01116, G12D); experiment: GDP-GTP exchange assay (bodipy-GDP/GppNHp, SOS1), KRAS G12D; format: biochemical; conditions: bodipy-loaded KRAS G12D 2.5 nM, 4 hours pre-incubation with inhibitor, 2 hours after GppNHp/SOS1; read-out: G12D_exchange IC50
Summary of the method: (§1)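 Bodipy-GDP-loaded KRAS (2.5 nM final) pre-incubated with inhibitor 4 h at ambient temperature in 25 mM Hepes pH 7.5, 50 mM NaCl, 10 mM MgCl2, 0.01% Brij-35. Exchange started with GppNHp (500 uM) plus SOS1 (150 nM); read after 2 h (G12D) or 3 h (G12V). Fluorescence ex 485/em 520 nm; IC50 from four-parameter logistic fit.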

KRAS G12V = KRAS G12V (Homo sapiens, UniProt P01116, G12V); experiment: GDP-GTP exchange assay (bodipy-GDP/GppNHp, SOS1), KRAS G12V; format: biochemical; conditions: bodipy-loaded KRAS G12V 2.5 nM, 3 hours incubation after adding GppNHp-SOS1; read-out: G12V_exchange IC50
Summary of the method: as §1

KRAS = experiment: Inhibition of KRAS activity, assay not specified (at least one assay described herein); conditions: remark in the synthesis example, assay not named
Excerpt: The invention will be described in greater detail by way of specific examples. The following examples are offered for illustrative purposes, and are not intended to limit the invention in any manner. Those of skill in the art will readily recognize a variety of non-critical parameters which can be changed or modified to yield essentially the same results.

Sequence of KRAS G12D (P01116 1-188 isoform P01116-2 G12D): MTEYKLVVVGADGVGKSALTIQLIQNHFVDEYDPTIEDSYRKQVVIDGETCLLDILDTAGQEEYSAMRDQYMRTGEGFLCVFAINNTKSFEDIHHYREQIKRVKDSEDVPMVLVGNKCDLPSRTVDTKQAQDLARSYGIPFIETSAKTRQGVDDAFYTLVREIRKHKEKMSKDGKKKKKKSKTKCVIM
Sequence of KRAS G12V (P01116 1-188 isoform P01116-2 G12V): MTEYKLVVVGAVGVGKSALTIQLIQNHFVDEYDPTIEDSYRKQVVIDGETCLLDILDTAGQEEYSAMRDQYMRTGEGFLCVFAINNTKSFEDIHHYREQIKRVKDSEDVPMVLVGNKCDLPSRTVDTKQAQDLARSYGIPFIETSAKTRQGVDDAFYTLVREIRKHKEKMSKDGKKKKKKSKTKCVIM

Row | SMILES | IC50 (KRAS G12D) [nM] | IC50 (KRAS G12V) [nM] | potency of isolated peak relative to the other diastereomer (KRAS)
1 | CCc1nc2c(-c3cc(C(=O)NC)ccc3F)nc3c(F)c(-c4cc(O)cc5ccccc45)c(CCC#N)cc3c2n1C1C2CNC1C2 (single isomer, unassigned) [Example 17a, 3-(1-((endo)-2-Azabicyclo[2.1.1]hexan-5-yl)-8-(2-cyanoethyl)-2-ethyl-6-fluoro-7-(3-hydroxynaphthalen-1-yl)-1H-imidazo[4,5-c]quinolin-4-yl)-4-fluoro-N-methylbenzamide] | ≤ 100 | ≤ 100 | More potent peak
2 | CC(=O)N1CC[C@H](n2cnc3c(O[C@@H](C)[C@@H]4CCCN4C)nc4c(F)c(-c5cccc6cccc(C#N)c56)c(Cl)cc4c32)C[C@H]1CC#N (single isomer, unassigned) [Example 39b] | ≤ 100 | ≤ 100 | potent peak
3 | C[C@H](Oc1nc2c(F)c(-c3cccc4cccc(C#N)c34)c(Cl)cc2c2c1ncn2[C@H]1CCN(C(=O)C2CC2)[C@H](CC#N)C1)[C@@H]1CCCN1C [Example 43, 8-(8-chloro-1-((2S,4S)-2-(cyanomethyl)-1-(cyclopropanecarbonyl)piperidin-4-yl)-6-fluoro-4-((S)-1-((S)-1-methylpyrrolidin-2-yl)ethoxy)-1H-imidazo[4,5-c]quinolin-7-yl)-1-naphthonitrile] | ≤ 100 | 100 to 1000 | 
4 | CC(=O)N1CC[C@H](n2nnc3c(O[C@@H](C)[C@@H]4CCCN4C)nc4c(F)c(-c5cccc6cccc(C#N)c56)c(Cl)cc4c32)C[C@H]1CC#N [Example 44, 8-(1-((2S,4S)-1-acetyl-2-(cyanomethyl)piperidin-4-yl)-8-chloro-6-fluoro-4-((S)-1-((S)-1-methylpyrrolidin-2-yl)ethoxy)-1H-[1,2,3]triazolo[4,5-c]quinolin-7-yl)-1-naphthonitrile] | ≤ 100 | ≤ 100 | 
5 | CC(=O)N1CC[C@H](n2c(=O)[nH]c3c(O[C@@H](C)[C@@H]4CCCN4C)nc4c(F)c(-c5cccc6cccc(C#N)c56)c(Cl)cc4c32)C[C@H]1CC#N [Example 45, 8-(1-((2S,4S)-1-acetyl-2-(cyanomethyl)piperidin-4-yl)-8-chloro-6-fluoro-4-((S)-1-((S)-1-methylpyrrolidin-2-yl)ethoxy)-2-oxo-2,3-dihydro-1H-imidazo[4,5-c]quinolin-7-yl)-1-naphthonitrile] | 100 to 1000 | ≤ 100 | 
